Usually Ki stands for the dissociation constant of the complex between target and ligand, obtained from inhibition or displacement.

Molecules are shown by their SMILES. Active and inactive are the calls of the source. The calls are words filed in the database; no cut-off is given here.

These results are taken from ChEMBL document CHEMBL3769314, “4(5)-Aryl-2-C-glucopyranosyl-imidazoles as New Nanomolar Glucose Analogue Inhibitors of Glycogen Phosphorylase” (ACS Med Chem Lett, 2015).

In assay [1] the target is T1, Glycogen phosphorylase, muscle form (Oryctolagus cuniculus, UniProt P00489).
T1 sequence (P00489 whole entry): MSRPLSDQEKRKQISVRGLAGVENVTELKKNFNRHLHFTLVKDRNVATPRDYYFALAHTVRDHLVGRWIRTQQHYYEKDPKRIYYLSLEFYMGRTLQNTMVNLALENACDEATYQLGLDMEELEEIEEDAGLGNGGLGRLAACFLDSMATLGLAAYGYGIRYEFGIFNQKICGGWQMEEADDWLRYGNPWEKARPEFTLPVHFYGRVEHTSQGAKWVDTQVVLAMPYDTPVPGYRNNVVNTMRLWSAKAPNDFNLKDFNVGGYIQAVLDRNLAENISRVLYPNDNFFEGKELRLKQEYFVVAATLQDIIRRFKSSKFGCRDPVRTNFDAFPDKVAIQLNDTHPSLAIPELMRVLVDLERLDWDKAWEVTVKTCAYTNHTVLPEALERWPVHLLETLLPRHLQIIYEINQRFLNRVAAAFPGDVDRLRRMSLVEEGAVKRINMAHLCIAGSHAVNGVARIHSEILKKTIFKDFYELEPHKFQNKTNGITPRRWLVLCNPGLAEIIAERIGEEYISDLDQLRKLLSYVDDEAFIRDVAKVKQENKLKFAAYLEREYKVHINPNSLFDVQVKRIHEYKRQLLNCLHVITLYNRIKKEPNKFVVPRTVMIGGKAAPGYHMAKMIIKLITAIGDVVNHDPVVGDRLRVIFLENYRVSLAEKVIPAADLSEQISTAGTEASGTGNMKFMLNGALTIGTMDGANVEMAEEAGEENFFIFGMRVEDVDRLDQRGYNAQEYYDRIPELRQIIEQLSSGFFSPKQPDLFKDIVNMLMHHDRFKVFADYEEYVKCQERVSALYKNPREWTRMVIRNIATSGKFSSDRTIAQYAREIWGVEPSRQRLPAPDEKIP

In assay [2] the target is T2, Glycogen phosphorylase, muscle form (Oryctolagus cuniculus) (UniProt P00489).
T2 sequence (whole entry): T1 sequence (P00489 whole entry)
Description: Inhibition of rabbit muscle glycogen phosphorylase-b using alpha-D-glucose-1-phosphate as substrate at 625 uM by Dixon plot analysis.

The target of assay [3] is T1, Glycogen phosphorylase, muscle form. Description: Competitive inhibition of rabbit muscle glycogen phosphorylase-b using alpha-D-glucose-1-phosphate as substrate by Dixon plot analysis.

`OC[C@H]1O[C@@H](c2cc(-c3ccccc3)n[nH]2)[C@H](O)[C@@H](O)[C@@H]1O` returned an inhibition constant Ki in assay [1] of 400 µM. `OC[C@H]1O[C@@H](c2cc(-c3ccccc3)on2)[C@H](O)[C@@H](O)[C@@H]1O`: the inhibition result in assay [2] is “inactive”. Turning to `OC[C@H]1O[C@@H](c2nc3ccccc3s2)[C@H](O)[C@@H](O)[C@@H]1O`, in assay [1], the Ki stood at 229 µM. Take `OC[C@H]1O[C@@H](c2nc(-c3ccccc3)c[nH]2)[C@H](O)[C@@H](O)[C@@H]1O`: affinity in assay [3] was put at a Ki of 0.28 µM. For `OC[C@H]1O[C@@H](c2nc(-c3ccccc3)cs2)[C@H](O)[C@@H](O)[C@@H]1O`, in assay [3], the affinity, expressed as Ki, was 310 µM.

As for `OC[C@H]1O[C@@H](c2nc(-c3ccc4ccccc4c3)c[nH]2)[C@H](O)[C@@H](O)[C@@H]1O`, the Ki in assay [3] came to 0.031 µM.

For `OC[C@H]1O[C@@H](c2nc(-c3ccc4ccccc4c3)cs2)[C@H](O)[C@@H](O)[C@@H]1O`, in assay [3], the affinity corresponds to a Ki of 158 µM. This Ki is about 5100-fold higher than that of the compound before.
